For the assay, the target named is T1, OST3 complex (Saccharomyces cerevisiae, UniProt P39007).
T1 construct: were purified separately from strains expressing only one type of complex; made in house; host or cells: Saccharomyces cerevisiae, BY4742-derived strain ost6::LEU2MX6 OST4-1D4::kanMX6 YEp352-OST3
The experiment in a line: In vitro glycosylation assay, kinetic parameters for synthetic LLOs, OST3 complex. It counts as biochemical. An excerpt: Synthetic LLO substrates all have two GlcNAcs as the sugar moiety, followed by pyrophosphate and lipid moieties (−R) of variable stereochemistry and length, denoted by the carbon chain length. C10, (S)-citronellyl; C15, farnesyl; C20, (S)-citronellylneryl; C25, (S)-citronellylfarnesyl; C90, represents the natural yeast dolichol lipid tail structure where n = 15. Figure modified from Ramirez et al. 2017 ([42]). B, quantification of kinetic parameters for the synthetic LLOs. Reactions were performed with 0.1 μM purified OST3 complex, 25 μM peptide TAMRA-YANATS, and varying concentrations of the different synthetic LLOs. Glycopeptide product was measured by UPLC and turnover rates were determined from the linear initial phase of the reaction. The mean of three reactions is shown and the data were fitted by nonlinear regression according to the Michaelis–Menten formula (R^2 = 0.9842 (LLO C15), 0.9685 (LLO C20), 0.9261 (LLO C25)) using Prism. Error bars indicate standard deviations from the mean (n = 3).
Concentrations of reactive LLO analogs were determined by in vitro glycosylation (see below) by titrating varying amounts of LLO against a known amount of fluorescently labeled peptide. Concentrations of nonreactive LLO analogs were determined by in vitro glycosylation by titrating varying amounts of nonreactive LLO while using known amounts of both fluorescently labeled peptide and active LLO analog.
Reactions were performed in a total volume of 10 μl containing the specified amount of TAMRA-labeled peptide, synthetic LLO analog, 10 mM MnCl2, and purified OST after size-exclusion chromatography in purification buffer (50 mM Hepes, pH 7.5, 150 mM NaCl, 1 mM MgCl2, 1 mM MnCl2, 10% (v/v) glycerol, 0.03% (w/v) DDM, and 0.006% (w/v) CHS). The concentration of OST was calculated using the molecular weight of 280 kDa. The reaction mixture was preincubated at 30 °C for 5 min before adding the peptide to start the reaction that proceeded at 30 °C. Time points were taken such that the reaction was in the linear phase. […]
Samples were analyzed by reverse-phase chromatography using a UPLC Dionex UltiMate 3000 with an Accucore 150-C18 100 × 2.1 mm 2.6 μm column (Thermo Fisher Scientific). One microliter sample (2 pmol of peptide) was injected and measured by isocratic elution using a certain proportion of ACN (15% ACN for peptide TAMRA-DANYTK; 20% ACN for peptide TAMRA-YANATS) in 10 mM KPO4, pH 8.0 buffer so that the glycopeptide and peptide are fully separated and elute within 3 min at a constant flow rate of 0.7 ml/min, with a column temperature of 45 °C. The peptide and glycopeptide were detected through TAMRA fluorescence (excitation wavelength: 546 nm; emission wavelength: 579 nm).
The UPLC profiles were analyzed by integrating the peaks corresponding to the glycopeptide and peptide using Chromeleon 7 (Dionex) and calculating the amount of glycopeptide formed using the following equation, as previously described ([43]): [GP]=PeakareaGP/PeakareaP+PeakareaGP×[P]
[GP] is the concentration of glycopeptide, Peak areaGP/P is the area under the curves measured for the glycopeptide or peptide, respectively, and [P] is the concentration of peptide at the start of the reaction. […] Unless specified otherwise, turnover rates were determined from the initial rates of reaction by taking into account the enzyme concentration in the reaction. […]

The structures appear in SMILES notation.

For `CC(=O)N[C@H]1[C@@H](OP(=O)(O)OP(=O)(O)OC/C=C(\C)CC/C=C(\C)CCC=C(C)C)O[C@H](CO)[C@@H](O[C@@H]2O[C@H](CO)[C@@H](O)[C@H](O)[C@H]2NC(C)=O)[C@@H]1O` [LLO C15], the kcat/KM (0.1 μM purified OST3 complex, 25 μM TAMRA-YANATS) is 0.02 min^-1 μM^−s1. For the same compound, under “0.1 μM purified OST3 complex, 25 μM TAMRA-YANATS, varying LLO (C15 5–200, C20 5–150, C25 2–50 μM), 30 °C, n = 3”, the “kcat (apparent)” value was 0.0283 ± 0.0017 s⁻¹. The Km (as a rule, the concentration of substrate that gives half-maximal velocity) (0.1 μM purified OST3 complex, 25 μM TAMRA-YANATS, varying LLO (C15 5–200, C20 5–150, C25 2–50 μM), 30 °C, n = 3, read-out: KM (apparent)) was found to be 67.9 ± 6.7 µM. Besides, the “apparent LLO affinity, in words” value (OST3 complex, from apparent KM) is “bound much less efficiently”.

(Values after paper PMC8191290, “Substrate specificities and reaction kinetics of the yeast oligosaccharyltransferase isoforms” (The Journal of Biological Chemistry, 2021).)
